Measured values published in ChEMBL document CHEMBL3046465, “A facile synthesis of new 3,3-disubstituted phthalides of pharmacological interest” (Med Chem Res, 2013).
In brackets after ≈: the same amount, converted by molar mass.

How the values were obtained:
Staphylococcus aureus [1] = experiment: Antibacterial activity against methicillin-resistant Staphylococcus aureus ATCC 33591 assessed as growth inhibition after 16 to 20 hr by CLSI broth dilution method; format: functional
Staphylococcus aureus [2] = experiment: Antibacterial activity against Staphylococcus aureus ATCC 29213 assessed as growth inhibition after 16 to 20 hr by CLSI broth dilution method; format: functional
Cryptococcus neoformans [3] = experiment: Antifungal activity against Cryptococcus neoformans ATCC 90113 assessed as growth inhibition after 70 to 74 hr by CLSI broth dilution method; format: functional
Aspergillus fumigatus [4] = experiment: Antifungal activity against Aspergillus fumigatus ATCC 204305 assessed as growth inhibition after 46 to 50 hr by CLSI broth dilution method; format: functional
Pichia kudriavzevii [5] = experiment: Antifungal activity against Pichia kudriavzevii ATCC 6258 assessed as growth inhibition after 46 to 50 hr by CLSI broth dilution method; format: functional
Nakaseomyces glabratus [6] = experiment: Antifungal activity against Candida glabrata ATCC 90030 assessed as growth inhibition after 46 to 50 hr by CLSI broth dilution method; format: functional
Candida albicans [7] = experiment: Antifungal activity against Candida albicans ATCC 90028 assessed as growth inhibition after 46 to 50 hr by CLSI broth dilution method; format: functional
[8] = system: Mycobacterium intracellulare; experiment: Antibacterial activity against Mycobacterium intracellulare ATCC 23068 assessed as growth inhibition after 70 to 74 hr by Alamar blue assay; format: functional, organism-based
Candida albicans [9] = experiment: Antifungal activity against Candida albicans ATCC 90028 assessed as growth inhibition after 46 to 50 hr by Alamar blue assay; format: functional, organism-based
[10] = system: Mycobacterium intracellulare; experiment: Antibacterial activity against Mycobacterium intracellulare ATCC 23068 assessed as growth inhibition after 70 to 74 hr by CLSI broth dilution method; format: functional
Pseudomonas aeruginosa [11] = experiment: Antibacterial activity against Pseudomonas aeruginosa ATCC 27853 assessed as growth inhibition after 16 to 20 hr by CLSI broth dilution method; format: functional
Escherichia coli [12] = experiment: Antibacterial activity against Escherichia coli ATCC 35218 assessed as growth inhibition after 16 to 20 hr by CLSI broth dilution method; format: functional
Staphylococcus aureus [13] = experiment: Antibacterial activity against methicillin-resistant Staphylococcus aureus ATCC 33591 assessed as growth inhibition after 16 to 20 hr by Alamar blue assay; format: functional, organism-based
Staphylococcus aureus [14] = experiment: Antibacterial activity against Staphylococcus aureus ATCC 29213 assessed as growth inhibition after 16 to 20 hr by Alamar blue assay; format: functional, organism-based
Cryptococcus neoformans [15] = experiment: Antifungal activity against Cryptococcus neoformans ATCC 90113 assessed as growth inhibition after 70 to 74 hr by Alamar blue assay; format: functional, organism-based
Aspergillus fumigatus [16] = experiment: Antifungal activity against Aspergillus fumigatus ATCC 204305 assessed as growth inhibition after 46 to 50 hr by Alamar blue assay; format: functional, organism-based
Nakaseomyces glabratus [17] = experiment: Antifungal activity against Candida glabrata ATCC 90030 assessed as growth inhibition after 46 to 50 hr by optical density measurement
Pichia kudriavzevii [18] = experiment: Antifungal activity against Pichia kudriavzevii ATCC 6258 assessed as growth inhibition after 46 to 50 hr by optical density measurement
Escherichia coli [19] = experiment: Antibacterial activity against Escherichia coli ATCC 35218 assessed as growth inhibition after 16 to 20 hr by optical density measurement
Pseudomonas aeruginosa [20] = experiment: Antibacterial activity against Pseudomonas aeruginosa ATCC 27853 assessed as growth inhibition after 16 to 20 hr by optical density measurement
Escherichia coli [21] = experiment: Antibacterial activity against Escherichia coli ATCC 35218 assessed as growth inhibition after 16 to 20 hr by optical density method

SMILES: CC(C)c1ccc(C2(c3ccc(O)c(O)c3)OC(=O)c3ccccc32)cc1 (configuration not stated)
- MIC (Staphylococcus aureus [1]): 12.5 µg/mL (≈ 34.7 µM)
- MIC (Staphylococcus aureus [2]): 18.8 µg/mL (≈ 52 µM)
- MIC (Cryptococcus neoformans [3]): > 200 µg/mL
- MIC (Aspergillus fumigatus [4]): > 200 µg/mL
- MIC (Pichia kudriavzevii [5]): > 200 µg/mL
- MIC (Nakaseomyces glabratus [6]): 200 µg/mL (≈ 555 µM)
- MIC (Candida albicans [7]): > 200 µg/mL
- IC50 [8]: > 200 µg/mL
- IC50 (Candida albicans [9]): 172 µg/mL (≈ 478 µM)
- MIC [10]: > 200 µg/mL
- MIC (Pseudomonas aeruginosa [11]): > 200 µg/mL
- MIC (Escherichia coli [12]): > 200 µg/mL
- IC50 (Staphylococcus aureus [13]): 6.81 µg/mL (≈ 18.9 µM)
- IC50 (Staphylococcus aureus [14]): 4.96 µg/mL (≈ 13.8 µM)
- IC50 (Cryptococcus neoformans [15]): 137 µg/mL (≈ 381 µM)
- IC50 (Aspergillus fumigatus [16]): 53.2 µg/mL (≈ 148 µM)
- IC50 (Nakaseomyces glabratus [17]): 45.8 µg/mL (≈ 127 µM)
- IC50 (Pichia kudriavzevii [18]): 15.5 µg/mL (≈ 42.9 µM)
- IC50 (Escherichia coli [19]): > 200 µg/mL
- IC50 (Pseudomonas aeruginosa [20]): 61 µg/mL (≈ 169 µM)

SMILES: C[C@@H]1[C@H](O)[C@@H](C)/C=C/C=C/C=C/C=C/C=C/C=C/C=C/[C@H](O[C@@H]2O[C@H](C)[C@@H](O)[C@H](N)[C@@H]2O)C[C@@H]2O[C@](O)(C[C@@H](O)C[C@@H](O)[C@H](O)CC[C@@H](O)C[C@@H](O)CC(=O)O[C@H]1C)C[C@H](O)[C@H]2C(=O)O [AMPHOTERICIN B]
- MIC (Cryptococcus neoformans [3]): 0.63 µg/mL (≈ 0.682 µM)
- MIC (Aspergillus fumigatus [4]): 1.25 µg/mL (≈ 1.35 µM)
- MIC (Pichia kudriavzevii [5]): 1.25 µg/mL (≈ 1.35 µM)
- MIC (Nakaseomyces glabratus [6]): 0.63 µg/mL (≈ 0.682 µM)
- MIC (Candida albicans [7]): 0.52 µg/mL (≈ 0.563 µM)
- IC50 (Candida albicans [9]): 0.2 µg/mL (≈ 0.216 µM)
- IC50 (Cryptococcus neoformans [15]): 0.32 µg/mL (≈ 0.346 µM)
- IC50 (Aspergillus fumigatus [16]): 0.67 µg/mL (≈ 0.725 µM)
- IC50 (Nakaseomyces glabratus [17]): 0.28 µg/mL (≈ 0.303 µM)
- IC50 (Pichia kudriavzevii [18]): 0.56 µg/mL (≈ 0.606 µM)

SMILES: O=C(O)c1cn(C2CC2)c2cc(N3CCNCC3)c(F)cc2c1=O [CIPROFLOXACIN]
- IC50 [8]: 0.32 µg/mL (≈ 0.966 µM)
- IC50 (Escherichia coli [19]): 0.005 µg/mL (≈ 0.0151 µM)

SMILES: CC(C)c1ccc(C2(c3ccc(O)c(O)c3)OC(=O)c3ccccc32)cc1[N+](=O)[O-] (configuration not stated)
- MIC (Staphylococcus aureus [1]): 50 µg/mL (≈ 123 µM)
- MIC (Staphylococcus aureus [2]): 50 µg/mL (≈ 123 µM)
- MIC (Cryptococcus neoformans [3]): > 100 µg/mL
- MIC (Aspergillus fumigatus [4]): > 100 µg/mL
- MIC (Pichia kudriavzevii [5]): > 100 µg/mL
- MIC (Nakaseomyces glabratus [6]): > 100 µg/mL
- MIC (Candida albicans [7]): > 100 µg/mL
- IC50 [8]: > 200 µg/mL
- IC50 (Candida albicans [9]): > 200 µg/mL
- MIC [10]: > 200 µg/mL
- MIC (Pseudomonas aeruginosa [11]): > 200 µg/mL
- MIC (Escherichia coli [12]): > 200 µg/mL
- IC50 (Staphylococcus aureus [13]): 27.8 µg/mL (≈ 68.5 µM)
- IC50 (Staphylococcus aureus [14]): 26.4 µg/mL (≈ 65 µM)
- IC50 (Cryptococcus neoformans [15]): > 200 µg/mL
- IC50 (Aspergillus fumigatus [16]): > 200 µg/mL
- IC50 (Nakaseomyces glabratus [17]): 76.3 µg/mL (≈ 188 µM)
- IC50 (Pichia kudriavzevii [18]): > 200 µg/mL
- IC50 (Escherichia coli [19]): > 200 µg/mL
- IC50 (Pseudomonas aeruginosa [20]): > 200 µg/mL

SMILES: CC(C)c1ccc(C2(c3ccc(O)c(O)c3O)OC(=O)c3ccccc32)cc1 (configuration not stated)
- MIC (Staphylococcus aureus [1]): 25 µg/mL (≈ 66.4 µM)
- MIC (Staphylococcus aureus [2]): 25 µg/mL (≈ 66.4 µM)
- MIC (Cryptococcus neoformans [3]): > 200 µg/mL
- MIC (Aspergillus fumigatus [4]): > 200 µg/mL
- MIC (Pichia kudriavzevii [5]): > 200 µg/mL
- MIC (Nakaseomyces glabratus [6]): > 200 µg/mL
- MIC (Candida albicans [7]): > 200 µg/mL
- IC50 [8]: > 200 µg/mL
- IC50 (Candida albicans [9]): 65 µg/mL (≈ 173 µM)
- MIC [10]: > 200 µg/mL
- MIC (Pseudomonas aeruginosa [11]): > 200 µg/mL
- MIC (Escherichia coli [12]): > 200 µg/mL
- IC50 (Staphylococcus aureus [13]): 18.8 µg/mL (≈ 49.9 µM)
- IC50 (Staphylococcus aureus [14]): 18.4 µg/mL (≈ 49 µM)
- IC50 (Cryptococcus neoformans [15]): > 200 µg/mL
- IC50 (Aspergillus fumigatus [16]): > 200 µg/mL
- IC50 (Escherichia coli [21]): 170 µg/mL (≈ 451 µM)
- IC50 (Nakaseomyces glabratus [17]): 17.5 µg/mL (≈ 46.5 µM)
- IC50 (Pichia kudriavzevii [18]): 25.5 µg/mL (≈ 67.7 µM)
- IC50 (Pseudomonas aeruginosa [20]): 116 µg/mL (≈ 309 µM)

SMILES: CC(C)c1ccc(C2(c3ccc(O)c(O)c3O)OC(=O)c3ccccc32)cc1[N+](=O)[O-] (configuration not stated)
- MIC (Staphylococcus aureus [1]): 133 µg/mL (≈ 316 µM)
- MIC (Staphylococcus aureus [2]): 100 µg/mL (≈ 237 µM)
- MIC (Cryptococcus neoformans [3]): > 200 µg/mL
- MIC (Aspergillus fumigatus [4]): > 200 µg/mL
- MIC (Pichia kudriavzevii [5]): > 200 µg/mL
- MIC (Nakaseomyces glabratus [6]): 83.3 µg/mL (≈ 198 µM)
- MIC (Candida albicans [7]): > 200 µg/mL
- IC50 [8]: > 200 µg/mL
- IC50 (Candida albicans [9]): 98.9 µg/mL (≈ 235 µM)
- MIC [10]: > 200 µg/mL
- MIC (Pseudomonas aeruginosa [11]): > 200 µg/mL
- MIC (Escherichia coli [12]): > 200 µg/mL
- IC50 (Staphylococcus aureus [13]): 45.7 µg/mL (≈ 108 µM)
- IC50 (Staphylococcus aureus [14]): 42.3 µg/mL (≈ 100 µM)
- IC50 (Cryptococcus neoformans [15]): > 200 µg/mL
- IC50 (Aspergillus fumigatus [16]): > 200 µg/mL
- IC50 (Nakaseomyces glabratus [17]): 21.3 µg/mL (≈ 50.6 µM)
- IC50 (Pichia kudriavzevii [18]): 88.7 µg/mL (≈ 210 µM)
- IC50 (Escherichia coli [19]): > 200 µg/mL
- IC50 (Pseudomonas aeruginosa [20]): 163 µg/mL (≈ 386 µM)
